The values below come from US20240189307A1, “METHODS OF STABILIZING THE NEURONAL PROTEOME AGAINST COLLAPSE AND PROTECTING VASCULAR CELLS” (ALBERT EINSTEIN COLLEGE OF MEDICINE, priority 2021, published 2024).

The subject of this assay is PS19 mice (tau P301S). Kind of assay: PS19 mouse model of Frontotemporal dementia-related proteotoxicity, oral daily CA. Type of assay: in vivo. The procedure: FIG. 11. Chemical activation of CMA improves behavior and neuropathology in a mouse model of Frontotemporal dementia-related proteotoxicity. (A) Schematic of regimen of CMA activator (CA) administration to mice overexpressing human P301S tau (PS19). (B, C) Spontaneous locomotion in an open field of 9-month-old CTR or PS19 mice administered vehicle (Veh) or CA. Representative tracks (B) and total distance traveled in 10 min (C). (D-H) Immunostaining for MC1 tau in the hippocampus, the amygdala and the piriform cortex of 9 months old CTR, PS19 +/− CA. Representative images of the indicated brain regions (D). Scale bars: hippocampus: 500 μm, amygdala and piriform cortex: 200 μm. Quantification of the area stained in the hippocampus (E), (F-J) Immunoblots for tau and phosphorylated tau. Representative immunoblots and densitometric quantifications for the indicated proteins: S422-phosphorylated tau (G), S202/T205-phosphorylated tau (AT8) (H), MC1 tau (I) and total tau (J). (K-M) Immunostaining for Iba1 (K) and quantification of average cell size in the hippocampus (L) and the piriform cortex (M). Scale bars: hippocampus: 500 μm and piriform cortex: 200 μm. Data are mean+s.e.m. Individual values are shown for n=9-10 mice per genotype and treatment in C, E, G-M). Comparisons were made using one-way ANOVA followed by Tukey's post-hoc analysis (C, E, G, I-M) or Kruskal-Wallis test followed by Dunn's post hoc test (H). *p<0.05, **p<0.005, ***p<0.0005.
Male wild-type mice (C57BL/6J) or transgenic for CaMKIIα-Cre (B6.Cg-Tg(Camk2α-cre)T29-1Stl/J, Jackson Laboratory), LAMP-2A^flox/flox (Schneider et al., 2014), Tau^P301L (line pR5), Tg (APP^Swe; PS2^N141I; Tau^P301L), PS19 (Tau^P301S) (Yoshiyama et al., 2007) and Atg7^f/f were used in the study. Conditional LAMP-2A deletion was generated by breeding LAMP-2A^flox/flox with the transgenic Cre mice of interest. Knockout for L2A in the whole body (L2A^−/−) was generated by insemination of a wild-type female with spermatozoids with L2A floxed to excise this gene in all tissues in the offspring. Male littermate wild type and only L2A^f/f were separately analyzed for each test and because no differences were detected among them, they were grouped in the results as “control” (CTR) for the experimental group (^CamKII[…] CreL2A^f/f or L2A^−/−). All mice were genotyped at weaning and genotyping was re-confirmed postmortem to correct for any possible misplacement during husbandry. Mice were all in the C57BL/6J background and maintained under specific pathogen-free conditions in ventilated cages with no more than 5 mice per cage. Only males were used in this study due to the complexity in generating the quadruple transgenic mouse model with L2A knock out in homozygosis (for which we took advantage of the location of the Lamp2 gene in the X chromosome). Age of the animals was 4-6 months in most experiments except when otherwise indicated in text, figures and figure legends. Animals were maintained at 19-23° C. in 12 h light/dark cycle. Mice were fed ad libitum. CA77.1 was administered as sucralose jelly pellets for a daily dose of 30 mg/Kg body weight whereas the vehicle treated group received the same sucralose jelly pellet without drug. Briefly, for preparation of the jelly pellets the final amount of the compound per day (adjusted per animal weight) was dissolved in ethanol and then mixed with a warm gelatin solution (100 mg/ml, 10 mg/ml sucralose in water), that was poured into 24 well flat bottom plates for solidification. To avoid animal stress and competition for the pellets, animals were separated with a grid spacer in the same cage that they were housed, eating of the pellet was monitored and the spacer was removed as soon as all mice consumed the pellet (average time 2 min). Sentinel animals were included in each study to determine brain exposure at the end of treatment. These animals received the same batch of jelly pellets in parallel to the experimental group. […]

Take `CC(=O)Nc1ccc(-c2cnc3cc(Cl)ccc3n2)cc1` [CA77.1]: the “spontaneous locomotion in open field (locomotor hyperactivity)” value (30 mg/kg body weight oral daily for 6 months from 3 months of age) is reported as “normalized the previously described locomotor hyperactivity of PS19 mice to control levels”. In addition, under “30 mg/kg oral daily, 6 months”, the “immunoblot levels of aberrant, phosphorylated, oligomeric and insoluble tau” value was “lower levels of conformationally aberrant, S422 and AT8 phosphorylated, oligomeric and insoluble forms of tau”; the “total levels of human tau” value is listed as “did not reduce total levels of human tau”. Also, the “number of microglial cells and large Iba1-positive dystrophic cells” value (hippocampus and piriform cortex, 30 mg/kg oral daily, 6 months) was “reduced upon CA treatment”. Besides, where the note is “hippocampus, amygdala and piriform cortex, 30 mg/kg oral daily, 6 months”, the “MC1 pathogenic tau conformations, levels and number of neurons” value is “reduced the levels and number of neurons containing pathogenic tau conformations”. Further, the “mice with tau Type III pathology (S202/T205, AT8 staining)” value (hippocampus, 30 mg/kg oral daily, 6 months, vehicle 60%) is reported as 10%.
